In patent US12012615B2, “Method of making induced pluripotent stem cells using p53 inhibitors” (Kyoto University, priority 2008, dated 2024):

Key:
Myc = experiment: Luciferase reporter driven by a Myc responsive element in HDF; type: cell-based, human; details: luciferase activity two days after introduction
Source text: (§1) FIGS. 24A-24C show effects of p53 suppression on p21 and Myc. Genes regulated (4 increased and 7 decreased) by p53 suppression were introduced into HDFs together with the four reprogramming factors (FIG. 24A) or the four reprogramming factors and the p53 shRNA (FIG. 24B). On day 24 (FIG. 24A) or day 28 (FIG. 24B) post-transduction, numbers of iPS cell colonies were counted. **; p<0.01 compared to DsRed control (n=3). Luciferase reporters containing responsive elements of p53 or Myc, or that driven by the polymerase II promoter were introduced into HDFs, together with the mock retroviral vector, the p53 shRNA, the four reprogramming factors, or the three factors devoid of Myc. Two days later, luciferase activities were determined (c). **; p<0.01, *; p<0.05 compared to the mock control (n=3).
(§2) The p21 protein binds to Myc and suppresses its transcriptional activity (Kitaura, H. et al., J Biol. Chem., 275(14), 10477-10483 (2000)). This might contribute to the increased efficiency of iPS cell generation by p53-p21 suppression. We evaluated the Myc activity in HDF by introducing luciferase reporters driven by either a p53-responsive element or a Myc responsive element (FIG. 24C). We confirmed the p53 activity was reduced by the shRNA. […] The effect was stronger than that observed with the introduction of the four factors including c-Myc.

HDFs = experiment: Human iPS cell generation with p53 shRNA co-transduction; type: cell-based; details: co-introduced with the four reprogramming factors
Source text: The retroviral vector expressing either p53 shRNA or control RNA was transduced into HDFs together with the four reprogramming factors. To rescue RNAi-mediated knockdown, a retroviral vector for mouse p53 was co-introduced.

p53 [1] = experiment: Luciferase reporter driven by a p53-responsive element in HDF; type: cell-based, human; details: luciferase activity two days after introduction
Source text: as §1, §2

p53 [2] = experiment: p53 protein level by western blot after shRNA transduction; type: cell-based, human; details: western blot six days after retroviral transduction
Procedure: Retroviral vectors for p53 shRNA or control RNA were transduced into HDFs. Six days after the transduction, p53 protein levels were determined by western blot analyses.
(B) In another experiment, we examined effects of shRNA against human p53 (shRNA2; Stewart S. A. et al. RNA 9(4), 493 (2003)). Retroviral vectors for shRNA expression, pMKO.1-puro (Addgene #8452), pMKO.1-puro p53 shRNA1 (Addgene #10671) and pMKO.1-puro p53 shRNA2 (Addgene #10672; shRNA sequence is shown in SEQ ID NO:28), were obtained from Addgene. Retroviruses for shRNAs, and the four or three reprogramming factors were produced in PLAT-E cells. For iPS cell generation, equal amounts of PLAT-E supematants containing each retrovirus were mixed and transduced to HDF.

HDF = experiment: DNA microarray gene expression, control HDF against p53 knockdown HDF; type: cell-based, human
Source text: To elucidate p53 target genes that are responsible for the observed enhancement of iPS cell generation, we compared gene expression between p53 wild-type MEF and p53-null MEF by DNA microarrays, and between control HDF and p53 knockdown HDF. In MEF, 1590 genes increased and 1485 genes decreased >5 fold in p53-null MEF. In HDF, 290 genes increased and 430 genes decreased >5 fold by p53 shRNA. Between mouse and human, eight increased genes are common, including v-myb myeloblastosis viral oncogene homolog (MYB) and a RAS oncogenes family, RAB39B (Table 2).

## p53 shRNA2: shRNA against human p53, SEQ ID NO:28, retroviral vector pMKO.1-puro p53 shRNA2 (Addgene #10672) (GACTCCAGTGGTAATCTACTGCTCGAGCAGTAGATTACCACTGGAGTC)
Myc
  Myc activity (luciferase reporter): significantly enhanced
HDFs
  numbers of human iPS cell colonies: markedly increased
p53 [1]
  p53 activity (luciferase reporter): reduced
p53 [2]
  p53 protein level: effectively suppressed
HDF
  number of genes decreased >5 fold: 430 genes
  number of genes increased >5 fold: 290 genes
